Reference: article PMC5289073, “Stable expression and functional characterisation of the diamondback moth ryanodine receptor G4946E variant conferring resistance to diamide insecticides” (Scientific Reports, 2015)
Read-outs that look alike come from different tables or passages of the source.

Tests used:
P. xylostella WT RyR [1] = biological target: T1, P. xylostella WT RyR (Plutella xylostella, UniProt K7W8M2); assay: Calcium fluorescence (Fluo8, FLIPR Tetra), Sf9 cells stably expressing wild-type RyR (Sf9-wtRyR); type: cell-based; settings: for Intracellular calcium signal over time (Fluo8): caffeine 30 mM, flubendiamide-sulfoxide 1 μM, chlorantraniliprole 1 μM
Protocol: Single Sf9 cell clones stably expressing either the wild-type (Sf9-wtRyR) or the G4946E (Sf9-mRyR) RyR channel were isolated after a few cycles of clonal selection. […] This may be explained by compensatory calcium re-uptake mechanisms of the sarco-/endoplasmic reticulum, in particular the Ca^2+-ATPase (SERCA)[32][33].
Fluorescence of the calcium-Fluo8 complex was measured as a function of time.
Measurements of the integrated calcium signals as a function of the diamide concentration, gave characteristic dose-response curves, from which apparent EC50 concentrations for flubendiamide-sulfoxide and chlorantraniliprole were calculated (Fig. 6). These values represent the effector concentration causing half-maximal integrated calcium signals in the cells. […] It should be noted that the EC50 values are not only determined by the compound’s affinities to the RyR, but also by their availability at the intracellular target site as influenced by their physico-chemical properties.
(§1) Figure 6 Calcium transients in Sf9 cells stably expressing either the P. xylostella WT (●) or the modified (G4946E) RyR (▲) as a function of the diamide concentration. Calcium-dye (Fluo8) fluorescence was measured after (a) flubendiamide-sulfoxide or (b) chlorantraniliprole application as a function of time. The integrated fluorescence signals were plotted against the logarithm of the effector concentration. Data fitting and EC50 calculations were performed with the SigmaPlot v13 software package.
(§2) Cells were transfected as described above and subjected to selection with 300 μg ml^−1 zeocin by the dilution method, essentially as described in the manufacturer´s manual (Invitrogen). After a few successive rounds of clonal selection, zeocin-resistant cell clones were tested for functional RyR expression by calcium fluorescence measurements.
(§3) Calcium-dye fluorescence was measured with Fluo8-loaded cells on the FLIPR Tetra instrument (Molecular Devices) in the 384 microtiter plate format. 1.5 × 10[4] cells per well were treated with variable concentrations of effector compounds in a total volume of 80 μl Tyrode´s buffer containing 0.1% DMSO (final concentration) essentially following the established protocols provided with the Fluo8 No-Wash calcium assay kit (Molecular Devices). Excitation and emission wavelengths were set at 490 nm and 525 nm, respectively.

Plutella xylostella = settings: cited from earlier work; for Resistance compared to susceptible strains: larvae collected from the Philippines and Thailand in 2012
Adoxophyes honmai = tested on: Adoxophyes honmai; design: method as in ref 40 = [40]; Uchiyama T. & Ozawa A. Rapid development of resistance to diamide insecticides in the smaller tea tortrix, Adoxophyes honmai (Lepidoptera: Tortricidae), in the tea fields of Shizuoka Prefecture, Japan; settings: cited from earlier work
Tuta absoluta = tested on: Tuta absoluta; design: method as in ref 39 = [39]; Roditakis E. et al. First report of Tuta absoluta resistance to diamide insecticides . J Pest Sci. 88 , 9 – 16 ( 2015 ).; settings: T. absoluta population from Sicily (Italy), up; cited from earlier work
P. xylostella G4946E RyR [2] = biological target: T2, P. xylostella G4946E RyR (Plutella xylostella, UniProt K7W8M2, G4900E); assay: Calcium fluorescence (Fluo8, FLIPR Tetra), Sf9 cells stably expressing G4946E RyR (Sf9-mRyR); type: cell-based
Protocol: as §1
The efficacy of both diamides was reduced dramatically in the Sf9-mRyR cells expressing the G4946E RyR.
as §2, §3

[3] = tested on: P. xylostella RyR (thoracic microsomal membranes); settings: Philippine strain versus susceptible strain; cited from earlier work
[4] = tested on: P. xylostella ROTH WT RyR; assay: Fura-2 AM calcium release, Sf9 cells transiently expressing ROTH WT RyR; type: cell-based, Plutella xylostella; settings: 72 h post transfection, caffeine 30 mM, flubendiamide sulfoxide 30 μM, flubendiamide 10 μM
Protocol: (§4) Figure 3 Fluorescence ratios measured over time in a single calcium release experiment using Fura-2 AM in Sf9 cells transiently expressing (a) WT construct and (b) the G4946E variant 72 h post transfection.
(§5) Sf9 cells (Life technologies) were maintained in Sf-900 II SFM (Gibco-life technologies) serum free media without antibiotic in 30 ml suspension cultures (shaking at 115 rpm) at a constant temperature of 27 °C. Cells used for transfection were seeded into 60 mm cell culture dishes (Corning®), at 2 × 10[6] cells per dish in 3 ml of Sf-900 II SFM, and left to attach for 1 h. Cells were transfected using 3 μg of plasmid DNA, 15 μl Cellfectin II reagent (Life technologies) and 5 μl PLUS™ enhancer reagent (Life technologies) per dish, following the manufacturer’s protocol.
(§6) Fura 2-AM dye (Life technologies, CA, USA) was used for monitoring calcium release in Sf9 cells transfected with the P. xylostella RyR. Approximately 2.5 × 10^5 of un-transfected SF9 cells were allowed to attach to Poly-L-lysine coated coverslips (Sigma, MA, USA) for 1 h and then transfected using Cellfectin™ II. 24 h, 48 h, 72 h and 96 h post transfection the cells were loaded with […] of Fura 2-AM calcium sensitive dye. Cells were left to incubate at 27 °C for 45–60 minutes, followed by 3 washes with 500 μl of fresh un-supplemented Sf-900 II medium. […]

P. xylostella G4946E RyR [5] = biological target: T2, P. xylostella G4946E RyR; type: cell-based; settings: 72 h post transfection, caffeine 30 mM, flubendiamide 10 μM
Protocol: as §4, §5, §6

[6] = biological target: rabbit skeletal muscle RyR; design: method as in PMID 11220363; settings: native preparation of rabbit skeletal muscle RyR; cited from earlier work
P. xylostella G4946E RyR [7] = biological target: T2, P. xylostella G4946E RyR; assay: [3H] ryanodine binding, membranes of Sf9 cells transiently expressing G4946E RyR
Protocol: (§7) Apparent differences in Kd and Bmax with those reported in other studies could likely be explained by the different experimental conditions.
(§8) Figure 4 Tritium labelled ryanodine binding from Sf9 membrane preparations expressing P. xylostella WT and G4946E RyRs.
(§9) For membrane preparation, transfected cells were harvested 48 h post transfection using phosphate buffered saline (PBS), the cells counted and then re-suspended in a hypo-osmotic buffer (20 mM Tris, 1 mM EDTA pH 7.4) at a concentration of 2 × 10[6] cells per ml. The cells were then homogenised and centrifuged at 1,500 g for 15 min at 4 °C to remove cell debris. The supernatant was removed, centrifuged at 100,000 g for 1 h at 4 °C and the membrane pellet re-suspended in a 0.4 M sucrose, 20 mM HEPES solution (20 μl per 2 × 10[6] cells). Protein concentration was determined using Bradford reagent (Bio-Rad) following the manufacturer’s instructions, against Bovine Serum Albumin (BSA) standards.
(§10) Binding reactions were set up in a 96 well flat bottom microtiter plate in a total volume of 250 μl per well. […]

P. xylostella WT RyR [8] = biological target: T1, P. xylostella WT RyR; assay: [3H] ryanodine binding, membranes of Sf9 cells transiently expressing ROTH WT RyR
Protocol: as §7, §8, §9, §10

H. virescens RyR = settings: cited from earlier work

| Compound | Intracellular calcium signal over time (Fluo8) (P. xylostella WT RyR [1]; Sf9-wtRyR) | Resistance compared to susceptible strains (Plutella xylostella) | Resistance ratio (Adoxophyes honmai) | Resistance level (Tuta absoluta) | Resistance ratio of EC50 for ryanodine binding stimulation [3] | Calcium release response (Fura-2 fluorescence ratio) [4] | Calcium release response (Fura-2 fluorescence ratio) (P. xylostella G4946E RyR [5]) | also measured |
| --- | --- | --- | --- | --- | --- | --- | --- | --- |
| Cn1c(=O)c2c(ncn2C)n(C)c1=O [caffeine] | increased rapidly to the maximum in less than one minute after application and then decreased to baseline levels |  |  |  |  |  |  |  |
| CNC(=O)c1cc(Cl)cc(C)c1NC(=O)c1cc(Br)nn1-c1ncccc1Cl [chlorantraniliprole] | increased intracellular calcium concentrations that persisted | over 200 fold | 77.2 fold | up to 2,414 fold | 159 fold |  |  | EC50 (P. xylostella WT RyR [1]): 0.017 µM; Resistance (Plutella xylostella; field populations from China with G4946E): 303–658 fold; EC50 (P. xylostella G4946E RyR [2]): 3.72 µM; Loss of effect on the RyR channel with G4946E substitution versus WT (P. xylostella G4946E RyR [2]; G4946E versus WT, from EC50 values): roughly two orders of magnitude |
| Cc1cc(C(F)(C(F)(F)F)C(F)(F)F)ccc1NC(=O)c1cccc(I)c1C(=O)NC(C)(C)C[S+](C)[O-] (centres unmarked) [flubendiamide sulfoxide] | increased intracellular calcium concentrations that persisted |  |  |  |  | reversible activation of the calcium release | failed to induce any release of calcium | EC50 (P. xylostella WT RyR [1]; Sf9-wtRyR, stable WT RyR, Fluo8, ± standard error printed, read-out: EC50 (half-maximal integrated calcium signal)): 0.245 µM; EC50 (P. xylostella G4946E RyR [2]; Sf9-mRyR, stable G4946E RyR, Fluo8, ± standard error printed, read-out: EC50 (half-maximal integrated calcium signal)): > 20 µM |
| Cc1cc(C(F)(C(F)(F)F)C(F)(F)F)ccc1NC(=O)c1cccc(I)c1C(=O)NC(C)(C)CS(C)(=O)=O [flubendiamide] |  | over 200 fold | 105 fold | ≤ 1,742 fold | > 450 fold | permanently increased Ca^2+ levels | did not show any calcium release |  |
| CC(C)[C@@]1(O)[C@@H](OC(=O)c2ccc[nH]2)[C@@]2(O)[C@@]3(C)C[C@]4(O)O[C@@]5([C@H](O)[C@@H](C)CC[C@]35O)[C@@]2(O)[C@@]14C [ryanodine] |  |  |  |  |  |  |  | Kd [6]: 0.00204 ± 0.00012 µM; Kd (P. xylostella G4946E RyR [7]): 0.0147 ± 0.00418 µM; Kd (P. xylostella WT RyR [8]): 0.0129 ± 0.0045 µM; Kd (H. virescens RyR; H. virescens native membrane preparations, different study): 0.0139 ± 0.0038 µM; Kd (H. virescens RyR; native preparation of H. virescens RyR): 0.00382 ± 0.00039 µM |
